Measurements published in US12109245B2, “Extract of aerial parts of Maca rich in polyphenols and composition comprising same” (LABORATOIRES EXPANSCIENCE, priority 2010, dated 2024).

What was measured:
Format in all cases: cell-based
Jurkat cell lines = test: UV-induced lipid peroxidation (C11-Fluor probe, flow cytometry); settings: 100 μM BHT
Method: Jurkat cell lines were pre-incubated for 45 minutes in the presence of 0.005% and 0.01% (w/v of active substance) Maca leaf extract (MC) or 100 μM BHT (reference) and in the presence of the C11-Fluor fluorescent probe, specific for lipid peroxidation.
The cells were then irradiated with UVA+B and incubated for 30 minutes in the presence of MC or BHT.
At the end of incubation, the quantity of lipid peroxides was evaluated by means of a flow cytometry analysis of the fluorescence intensity (inversely proportional to oxidation).
The results were analysed were analysed statistically using a Student's t test.

Human neutrophils = test: Release of elastase by neutrophils; settings: 10 μg/ml Boswellic acid
Method: Human neutrophils were treated for 15 minutes with 0.005 and 0.01% (w/v of active substance) Maca leaf extract (MC) or with 10 μg/ml Boswellic acid (reference) and stimulated with 1 μM calcium ionophore A23187, for 10 minutes. The release of elastase was evaluated by measuring the elastase activity with a spectrophotometric method. The results were analysed statistically using a Student's t test.

Normal human adipocytes = test: Evaluation of lipogenesis in adipocytes ([14C]-acetate incorporation); settings: 20 μM cerulenin
Method: Normal human adipocytes were incubated for 1 hour in the presence of 0.005% and 0.01% (w/v of active substance) Maca leaf extract or reference (20 μM cerulenin). After incubation, the radioactive marker [^14C]-acetate was added and the samples were incubated overnight.
At the end of incubation, the lipids were extracted and the incorporated radioactivity (corresponding to lipogenesis) was measured by means of liquid scintillation.
The results were analysed statistically using a Student's t test.

[1] = system: Human keratinocytes (NCTC-2544 line); test: PMA-induced IL8 and PGE2 production by keratinocytes (ELISA)
Method: The cells were then treated with 0.1 μg/ml PMA (Phorbol Myristate Acetate) for 24 hours, also in the presence of MC or the references. Following the treatment, the quantities of IL8 (interleukin8) and PGE2 (prostaglandin E2) secreted were measured by means of ELISA in the culture supernatants. The results were analysed statistically using a Student's t test.

[2] = system: Normal human dermal fibroblasts; test: Gene expression of dermal matrix markers in fibroblasts (real-time RT-PCR); settings: 5 ng/ml TGFβ1, 24 hours
Method: Normal human dermal fibroblasts were treated for 24 hours with 0.002% and 0.005% (w/v of active substance) Maca leaf extract (MC) or with 5 ng/ml TGFβ1 (reference).
At the end of incubation, the gene expression of various dermal matrix markers was analysed by means of real-time RT-PCR.
The results were analysed statistically by means of a one-factor ANOVA followed by a Dunnett test.

With `Cc1cc(C(C)(C)C)c(O)c(C(C)(C)C)c1` [BHT] the “Protection (%) against UV-induced lipid peroxidation” value (Jurkat cell lines) was 49% and the “Lipid peroxidases (% irradiated reference)” value (Jurkat cell lines; UVA+B irradiated cells = 100) was 64%.

For `C[C@H]1[C@H](C)CC[C@]2(C)CC[C@]3(C)C(=CC[C@@H]4[C@@]5(C)CC[C@@H](O)[C@](C)(C(=O)O)[C@@H]5CC[C@]43C)[C@H]12` [Boswellic acid], the “Elastase (net release; %)” value (Human neutrophils; 15 minutes, 1 μM calcium ionophore A23187 = 100) was 50.90 ± 7.49% and the inhibition at 10 µg/mL (Human neutrophils; Homo sapiens, Neutrophil) was 49%.

For `C/C=C/C/C=C/CCC(=O)[C@H]1O[C@H]1C(N)=O` [Cerulenin, cerulenin], the “Acetate incorporation (cpm)” value (Normal human adipocytes; control cells 32895 ± 1358) was 14934 ± 671 cpm and the inhibition at 20 µM (Normal human adipocytes; Homo sapiens, Adipocyte) was 55%.

`C[C@@H]1C[C@H]2[C@@H]3CCC4=CC(=O)C=C[C@]4(C)[C@@]3(F)[C@@H](O)C[C@]2(C)[C@@]1(O)C(=O)CO` [dexamethasone] was tested, and the “IL8 Inhibition” value ([1]; 10−7M dexamethasone, 0.1 μg/ml PMA) was 85% and the IL8 production ([1]; 10−7M dexamethasone, 0.1 μg/ml PMA 24 hours (PMA alone 50.1 ± 1.8)) was 7.4 ± 0.08 ng/ml %.

`COc1ccc2c(c1)c(CC(=O)O)c(C)n2C(=O)c1ccc(Cl)cc1` [indometacin] was tested, and the “PGE2 Inhibition” value ([1]; 10−6M indometacin, 0.1 μg/ml PMA) was 100% and the PGE2 production ([1]; 10−6M indometacin, 0.1 μg/ml PMA 24 hours (PMA alone 138.4 ± 10.6)) was 0.039 ± 0.0 ng/ml %.

In the case of “TGFβ1: 5 ng/ml TGFβ1 (reference) in the dermal fibroblast test”, the “Collagen I gene expression, change vs control” value [2] is reported as “+40%”, the “Dermatopontin gene expression, change vs control” value [2] is reported as “+34%” and the “Elastin gene expression, change vs control” value [2] is reported as “+57%”. For the same molecule, the “Fibronectin gene expression, change vs control” value [2] was “+141%”, the “MMP1 gene expression, change vs control” value [2] was −78% and the “Collagen I gene expression (Relative Quantity)” value ([2]; control = 1.00) was 1.40. The “Dermatopontin gene expression (Relative Quantity)” value ([2]; control = 1.00) was 1.34, the “Elastin gene expression (Relative Quantity)” value ([2]; control = 1.00) was 1.57 and the “Fibronectin gene expression (Relative Quantity)” value ([2]; control = 1.00) was 2.41. For the same molecule, the “MMP1 gene expression (Relative Quantity)” value ([2]; control = 1.00) was 0.22.
